Measurements: patent publication US12504431B2, “Biomarkers for a therapy comprising a sorafenib compound” (Eisai R&D Management Co., Ltd., priority 2018, dated 2025)
Where a name gives a salt, the structure may show the parent alone.

How the values were obtained:
[1] = Relative body weight changes in mice with FGF21-TF and Mock-TF tumors; assay type: in vivo, female nude mice; conditions: LEN 10 mg/kg and 30 mg/kg, SOR 30 mg/kg, orally once daily; FIG. 2
From the text: (§1) Methods: Human FGF21 and Mock-transfected HCC PLC/PRF/5 cells (FGF21-TF and Mock-TF, respectively) were established by using piggy-back system. To evaluate antitumor activity against these tumors, 4.2×10^6 cells of FGF21-TF or 4.3×10^6 cells of Mock-TF were subcutaneously injected into female nude mice (Charles River, Japan) with matrigel (BD Biosciences). When tumor volumes reached approximately 200-300 mm3, mice were divided into each group according to their tumor volumes and either lenvatinib mesylate (abbreviated as LEN) (10 mg/kg and 30 mg/kg) or Sorafenib tosylate (abbreviated as SOR) (30 mg/kg) was orally administered once daily. Follow-up analysis of a HCC patient-derived xenograft (PDX)-derived tumor (LI0334 HCC PDX tumor model treated with 3 mM HCl (vehicle for lenvatinib)) assessed FGF21 expression levels by immunohistochemistry. Three μm thick sections of paraffin-embedded tumor samples were de-paraffinized and hydrated. Antigen retrieval was performed by incubation of the samples in Dako REAL Target Retrieval sol. (pH6.0) (Dako) for 30 minutes. Endogenous hydrogen peroxidase activity was blocked by incubating the slides for 10 min with 3% hydrogen peroxide. The slides were incubated overnight with primary antibody, human rabbit anti-human FGF21 (ab64857. Abcam) at 1:100 in 1% BSA/PBS at 4° C. […]

[2] = system: Mock-transfected HCC PLC/PRF/5 cells (Mock-TF); test: Antitumor activity in Mock-TF tumor xenograft model in mice; assay type: in vivo, female nude mice; conditions: LEN 10 mg/kg and 30 mg/kg, SOR 30 mg/kg, orally once daily; FIG. 1
From the text: as §1

[3] = system: Human FGF21-transfected HCC PLC/PRF/5 cells (FGF21-TF); test: Antitumor activity in FGF21-TF tumor xenograft model in mice; assay type: in vivo, female nude mice; conditions: LEN 10 mg/kg and 30 mg/kg, SOR 30 mg/kg, orally once daily; FIG. 1
From the text: as §1

[4] = system: LI0334 HCC PDX tumor; conditions: PDX tumor highly expressing FGF21; reported in Matsuki et al., AACR 2017; cited from earlier work
[5] = system: unresectable HCC; test: Phase 3 study E7080-G000-304: OS and PFS by baseline serum FGF21 level; assay type: in vivo, human; conditions: for MST for PFS, high FGF21 group / MST for PFS, low FGF21 group / HR for PFS, high vs low FGF21 group: PFS by RECIST 1.1 (IIR); for MST for PFS, high FGF21 group / median OS (MST), high FGF21 group: baseline serum FGF21 at or above third quartile cutoff (688 ng/L); for MST for PFS, low FGF21 group / median OS (MST), low FGF21 group: baseline serum FGF21 below third quartile cutoff (688 ng/L); for HR for PFS, high vs low FGF21 group / HR for OS, high vs low FGF21 group: univariate Cox regression, third quartile cutoff (688 ng/L); for difference of PFS (RECIST 1.1) between high and low baseline FGF21 groups: third quantile cutoff point
Procedure: E7080-G000-304 was a multicenter, randomized, open-label, noninferiority Phase 3 study to compare the efficacy and safety of lenvatinib versus sorafenib as a first-line systemic treatment in subjects with unresectable HCC. Subjects were randomly assigned in a 1:1 ratio to treatment with either lenvatinib 12 mg (baseline body weight [BW]≥60 kg) or 8 mg (baseline BW<60 kg) given once daily (QD) orally or sorafenib 400 mg given twice daily (BID) orally. Subjects were stratified by region, presence or absence of macroscopic portal vein invasion (MPVI) or extrahepatic spread (EHS) or both, Eastern Cooperative Oncology Group Performance Status (ECOG PS) 0 or 1, and BW (<60 kg or ≥60 kg). A total of 951 subjects (476 lenvatinib; 475 sorafenib) were enrolled and treated. Lenvatinib and sorafenib were self-administered by the subjects orally, at the same time each day (consistently either with or without food) in continuous 28-day cycles. Subjects received study treatment until disease progression, development of unacceptable toxicity, subject request, or withdrawal of consent.
Of the 954 subjects enrolled in the clinical study and assigned to receive lenvatinib or sorafenib, 407 subjects (42.7% of all ITT subjects, lenvatinib arm, n=279 and sorafenib arm, n=128) were included in blood serum biomarker assay.
Serum samples were collected at Day 1 of Cycle1 (pre-treatment). The serum levels of FGF21 at Day 1 of Cycle 1 (baseline level) in Samples from 279 subjects in the lenvatinib arm and 128 subjects in the sorafenib arm (total 407 subjects) were determined by enzyme-linked immunosorbent assay (ELISA). All biomarker data were transferred to study data tabulation model (SDTM) in accordance with the data transfer specification developed separately. Correlation between the serum baseline level of FGF21 and clinical outcome, such as progression free survival (PFS) was assessed. PFS was defined as the time from the date of randomization to the date of first documentation of disease progression or death.
All statistical analyses were performed by the Clinical Data Science department at Eisai Co., Ltd. (Tokyo, Japan) after the clinical study was completed and a snapshot of the database was obtained on 13 Nov. 2016. For the correlation analyses with PFS, data sets based on independent imaging review (IIR) by RECIST 1.1 were used. Statistical analyses were performed using SAS version 9.3.
For each baseline level of blood serum biomarker, correlation analysis with survival outcome measures (OS and PFS) was performed using univariate Cox regression for the lenvatinib arm and the sorafenib arm separately.
Subjects were divided into two high-low groups based on the baseline level of each blood serum biomarker. The cutoff point was third quartile. Association between the groups and survival outcome measures (OS and PFS) was explored using univariate Cox regression and the Log-rank test with the selected cutoff points.

SMILES	body weight losses associated with tumor presence compared to non-treatment [1]	antitumor activity (tumor volume changes) in the Mock-TF model [2]	antitumor activity (tumor volume changes) in the FGF21-TF model [3]	inhibition of the LI0334 HCC PDX tumor model [4]	MST for PFS, high FGF21 group [5]	MST for PFS, low FGF21 group [5]	HR for PFS, high vs low FGF21 group [5]	median OS (MST), high FGF21 group [5] [months]	median OS (MST), low FGF21 group [5] [months]	difference of PFS (RECIST 1.1) between high and low baseline FGF21 groups [5]	HR for OS, high vs low FGF21 group [5]
COc1cc2nccc(Oc3ccc(NC(=O)NC4CC4)c(Cl)c3)c2cc1C(N)=O [LEN, lenvatinib mesylate]	Neither treatment exacerbated body weight losses	showed antitumor activity	showed activity	inhibited by LEN							
COc1cc2nccc(Oc3ccc(NC(=O)NC4CC4)c(Cl)c3)c2cc1C(N)=O [Lenvatinib, 4-(3-chloro-4-(cyclopropylaminocarbonyl)aminophenoxy)-7-methoxy-6-quinolinecarboxamide]					7.5	8.0	1.184	10.9	18.0	no clear difference of PFS	1.745
CNC(=O)c1cc(Oc2ccc(NC(=O)Nc3ccc(Cl)c(C(F)(F)F)c3)cc2)ccn1 [SOR, Sorafenib tosylate]	Neither treatment exacerbated body weight losses	showed antitumor activity	only LEN showed activity								
CNC(=O)c1cc(Oc2ccc(NC(=O)Nc3ccc(Cl)c(C(F)(F)F)c3)cc2)ccn1 [Sorafenib, 4-[4-[[4-chloro-3-(trifluoromethyl)phenyl]carbamoylamino]phenoxy]-N-methylpyridine-2-carboxamide]					2.4	5.5	1.783	6.8	17.8	short median PFS (RECIST 1.1) for high group than that of low group	3.341
